According to publication PMC6478789, “A chemical toolbox for the study of bromodomains and epigenetic signaling” (Nature Communications, 2019):
Like-named read-outs stand apart in the source and are kept apart here.

Experiments:
NSD3 = target: T1, NSD3 (Homo sapiens, UniProt Q9BZ95); test: Methyl transferase scintillation proximity assay; type: biochemical; conditions: average of two measurements; for inhibition at 10 µM: read-out: MTases Inhibition (%)
T1 construct: purchased DiscoverX BROMOscan (bromodomains); SGC in-house methyltransferase panel
T1 sequence (Q9BZ95 1-1437): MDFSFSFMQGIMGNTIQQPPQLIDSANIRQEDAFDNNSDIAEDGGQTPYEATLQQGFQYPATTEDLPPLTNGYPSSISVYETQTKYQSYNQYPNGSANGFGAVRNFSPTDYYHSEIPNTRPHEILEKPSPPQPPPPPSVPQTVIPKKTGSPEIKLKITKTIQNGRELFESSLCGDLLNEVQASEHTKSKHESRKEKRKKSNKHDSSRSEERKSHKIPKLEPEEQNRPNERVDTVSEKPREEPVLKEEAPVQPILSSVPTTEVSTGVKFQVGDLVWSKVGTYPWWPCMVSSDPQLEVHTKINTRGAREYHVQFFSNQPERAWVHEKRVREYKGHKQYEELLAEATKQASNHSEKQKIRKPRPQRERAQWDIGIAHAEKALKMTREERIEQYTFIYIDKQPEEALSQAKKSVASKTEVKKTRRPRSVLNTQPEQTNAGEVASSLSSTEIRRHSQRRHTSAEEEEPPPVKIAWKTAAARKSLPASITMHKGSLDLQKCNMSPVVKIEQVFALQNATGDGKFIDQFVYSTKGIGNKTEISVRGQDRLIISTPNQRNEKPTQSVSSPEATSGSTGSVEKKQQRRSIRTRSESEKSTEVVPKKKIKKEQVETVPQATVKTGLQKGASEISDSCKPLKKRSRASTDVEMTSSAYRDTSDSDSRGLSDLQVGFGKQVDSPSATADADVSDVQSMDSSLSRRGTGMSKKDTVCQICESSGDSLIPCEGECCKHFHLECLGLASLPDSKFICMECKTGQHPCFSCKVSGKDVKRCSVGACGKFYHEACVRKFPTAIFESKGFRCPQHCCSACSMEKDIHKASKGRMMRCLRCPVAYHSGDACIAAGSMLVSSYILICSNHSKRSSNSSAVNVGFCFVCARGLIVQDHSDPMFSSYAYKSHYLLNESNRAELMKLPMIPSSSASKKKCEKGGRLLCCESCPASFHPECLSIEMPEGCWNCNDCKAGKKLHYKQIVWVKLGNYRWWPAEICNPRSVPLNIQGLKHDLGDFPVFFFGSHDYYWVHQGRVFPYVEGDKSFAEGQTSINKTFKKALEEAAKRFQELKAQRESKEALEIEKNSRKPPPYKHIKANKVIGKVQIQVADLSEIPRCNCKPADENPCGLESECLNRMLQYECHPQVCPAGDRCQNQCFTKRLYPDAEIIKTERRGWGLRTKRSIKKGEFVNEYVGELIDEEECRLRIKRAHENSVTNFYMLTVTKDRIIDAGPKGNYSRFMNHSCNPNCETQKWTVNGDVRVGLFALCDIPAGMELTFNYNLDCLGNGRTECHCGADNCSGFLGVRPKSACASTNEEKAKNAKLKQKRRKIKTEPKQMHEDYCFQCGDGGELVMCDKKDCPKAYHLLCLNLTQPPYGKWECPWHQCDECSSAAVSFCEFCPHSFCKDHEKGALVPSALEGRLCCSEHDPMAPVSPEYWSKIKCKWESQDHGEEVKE
Procedure, shortened: (§1)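 Read-out is scintillation counts (CPM) from biotinylated substrate carrying a ^3H-methyl group, normalised to no-compound (100%) and no-enzyme (0%) wells. Reactions used ^3H-SAM and substrate close to each enzyme's apparent Km.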

G9A = target: T2, G9A (Homo sapiens, UniProt Q96KQ7); test: Methyl transferase scintillation proximity assay; type: biochemical; conditions: average of two measurements; for inhibition at 10 µM: read-out: MTases Inhibition (%)
T2 construct: purchased DiscoverX BROMOscan (bromodomains); SGC in-house methyltransferase panel
T2 sequence (Q96KQ7 1-1210): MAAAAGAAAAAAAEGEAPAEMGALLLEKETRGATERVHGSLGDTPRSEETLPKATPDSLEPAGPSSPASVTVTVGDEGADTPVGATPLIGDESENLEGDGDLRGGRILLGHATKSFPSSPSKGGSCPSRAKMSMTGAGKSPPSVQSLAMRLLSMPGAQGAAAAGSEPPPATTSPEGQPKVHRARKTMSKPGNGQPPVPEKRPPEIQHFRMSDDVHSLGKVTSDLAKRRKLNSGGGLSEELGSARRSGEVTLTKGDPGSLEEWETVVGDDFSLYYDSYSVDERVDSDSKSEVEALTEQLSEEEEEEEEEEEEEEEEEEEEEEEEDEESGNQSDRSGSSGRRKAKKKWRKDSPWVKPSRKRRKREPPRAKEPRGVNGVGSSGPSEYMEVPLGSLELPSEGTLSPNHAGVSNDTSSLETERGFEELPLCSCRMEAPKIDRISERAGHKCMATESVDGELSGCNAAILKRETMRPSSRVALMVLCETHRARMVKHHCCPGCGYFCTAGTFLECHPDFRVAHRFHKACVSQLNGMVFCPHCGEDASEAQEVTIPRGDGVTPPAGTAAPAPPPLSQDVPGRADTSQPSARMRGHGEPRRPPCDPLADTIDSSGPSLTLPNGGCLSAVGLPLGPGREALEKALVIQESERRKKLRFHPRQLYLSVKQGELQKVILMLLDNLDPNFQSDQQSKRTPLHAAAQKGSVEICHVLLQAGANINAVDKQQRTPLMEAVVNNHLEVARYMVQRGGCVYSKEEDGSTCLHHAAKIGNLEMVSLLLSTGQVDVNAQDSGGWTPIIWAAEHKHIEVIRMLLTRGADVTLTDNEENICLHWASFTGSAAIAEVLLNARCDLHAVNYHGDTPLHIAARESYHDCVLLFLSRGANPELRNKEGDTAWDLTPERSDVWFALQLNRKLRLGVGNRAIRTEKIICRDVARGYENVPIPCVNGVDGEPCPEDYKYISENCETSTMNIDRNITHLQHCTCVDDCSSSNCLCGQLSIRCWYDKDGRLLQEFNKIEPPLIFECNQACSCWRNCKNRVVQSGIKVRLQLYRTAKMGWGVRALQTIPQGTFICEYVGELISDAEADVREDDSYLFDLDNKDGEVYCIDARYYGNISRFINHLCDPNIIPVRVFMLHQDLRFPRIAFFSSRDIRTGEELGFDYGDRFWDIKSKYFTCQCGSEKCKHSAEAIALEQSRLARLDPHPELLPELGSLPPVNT
Procedure, shortened: as §1

BRD8(1) = BRD8(1) (Homo sapiens, UniProt Q9H0E9); test: BROMOscan ligand-binding assay
Chain of BRD8(1) (Q9H0E9 706-811 limits assumed): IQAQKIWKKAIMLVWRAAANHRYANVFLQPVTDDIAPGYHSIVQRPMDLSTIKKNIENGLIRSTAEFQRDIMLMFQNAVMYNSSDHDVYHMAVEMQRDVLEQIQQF
Excerpt: BROMOscan is a binding assay based on the well-known KINOMEscan technology. This assay measures the binding of a DNA-tagged bromodomain to an immobilized BRD ligand. If an inhibitor is present, it will compete with the bromodomain binding to the immobilized ligand, resulting in reduction of a quantitative PCR (qPCR) signal in a dose-dependent manner.

[1] = KD (BROMOscan), sheet prints no unit (nM)
[2] = KD, BROMOscan Gene Symbol BRD8(1)

Cc1c(NC(=O)c2cc(C(N)=O)nc3cc(F)ccc23)c(C(F)(F)F)nn1Cc1ccc(C(C)(C)C)cc1 [BAY-588]
inhibition at 10 µM (NSD3): -2%
inhibition at 10 µM (G9A): 3%

COc1cc(Cl)c(C(=O)N[C@@H](CN[C@H]2CC[C@@H](N)CC2)Cc2ccc(C#N)cc2)cc1-c1ccc(CN[C@H](C)c2ccc(C)cc2)o1 [BAY-850]
inhibition at 10 µM (NSD3): 14%
inhibition at 10 µM (G9A): 7%

Cc1c(NC(=O)c2cc(C(N)=O)nc3cc(F)ccc23)c(C(F)(F)F)nn1Cc1ccc(C#N)cc1 [BAY-876]
inhibition at 10 µM (NSD3): 3%
inhibition at 10 µM (G9A): -3%

CCCOc1ccn2c(C(C)=O)cc(-c3ccccc3S(C)(=O)=O)c2c1 [GSK2801]
Kd (BRD8(1); [1]): > 30000 nM
Kd (BRD8(1); [2]): > 100000 nM

CN1C[C@H](Nc2cnn(C)c(=O)c2Br)C[C@H](c2ccccc2)C1 [GSK4027]
inhibition at 10 µM (NSD3): 10%
inhibition at 10 µM (G9A): 1%

COc1ccccc1C(=O)Nc1cc2c(cc1N1CCNC[C@H]1C)n(C)c(=O)n2C [GSK6853]
MTases Inhibition (%) (NSD3; 10µM): 7%
MTases Inhibition (%) (G9A; 10µM): -2%

CO[C@H]1CNC[C@@H](OCC2CCC(F)(F)CC2)[C@@H]1Nc1ncc(-c2cncc(C)c2)c2cc(C)c(=O)[nH]c12 [GSK8814]
inhibition at 10 µM (NSD3): 13%
inhibition at 10 µM (G9A): -2%

CCC(=O)N1CCOc2c(cc(-c3ccc(OC)c(OC)c3)cc2OCC2CCCN(C)C2)C1 (stereo not shown) [I-CBP112]
Kd (BRD8(1); [1]): > 30000 nM
Kd (BRD8(1); [2]): > 100000 nM

Cc1nnc2c3ccccc3c(N[C@@H](C)[C@H](c3ccccc3)N(C)C)nn12 [L-Moses]
inhibition at 10 µM (NSD3): 5%
inhibition at 10 µM (G9A): -3%

Cc1cc(=O)n(C)c2cc(N3C(=O)CC[C@H](NS(=O)(=O)CC(C)C)[C@H]3c3ccc(Cl)cc3)ccc12 [LP-99]
Kd (BRD8(1); BROMOscan, BRD8(1)): > 50000 nM

COc1cc(C#N)ccc1S(=O)(=O)Nc1ccc2c(c1)cc(C)c(=O)n2C [NI 57]
Kd (BRD8(1); BRD8(1)): > 50000 nM

CCCS(=O)(=O)c1nc(NC2CC2)cc(-c2ccc3c(ccn3C3CC(C)(C)NC(C)(C)C3)c2)n1 [NVS-CECR2-1]
Kd (BRD8(1)): > 30000 nM

COc1cc2c(cc1NS(=O)(=O)c1ccc(Br)cc1C)n(C)c(=O)n2C [OF-1]
Kd (BRD8(1); BRD8(1)): > 50000 nM
Kd (BRD8(1); read-out: KD (BROMOscan), sheet prints no unit (nM)): > 30000 nM

O=C(C=CN1[C@H]2CC[C@@H]1c1ncnc(NC3CC3)c1C2)c1ccccc1O [PFI-3 D1]
Kd (BRD8(1); BROMOscan, BRD8(1)): > 30000 nM

O=C(C=CN1CC2CC1CN2c1ccccn1)c1ccccc1O (stereo not shown) [PFI-3]
Kd (BRD8(1); [1]): > 30000 nM
Kd (BRD8(1); KD, BRD8(1)): > 100000 nM

COc1ccc(CCc2nc3cc(-c4c(C)noc4C)ccc3n2C[C@H](C)N2CCOCC2)cc1Cl [SGC-CBP30]
Kd (BRD8(1); [1]): > 30000 nM
Kd (BRD8(1); KD, BROMOscan, BRD8(1)): > 100000 nM

O=C(O)c1ccccc1O [Salicylic Acid]
Kd (BRD8(1); KD, BRD8(1)): > 1.4e+07 nM

CN(C)CCCOc1ccc(-c2cc(NCCCn3cccn3)nc(S(C)(=O)=O)n2)cc1 [TP-238]
inhibition at 10 µM (NSD3): 15%
inhibition at 10 µM (G9A): 7%
